Data taken from patent US10071981B2, “Method of priming plants against abiotic stress factors” (Research Foundation of The City University of New York, priority 2014, dated 2018).
“Also recorded” adds a separate entry of the source.

How the values were obtained:
Assay type in all cases: in vivo
Medicago sativa plants [1] = assay: Macroscopic (phenotypic) observation of drought-stressed plants; conditions: for phenotype (vitality, turgor, greening): 100 μM foliar spraying, 30% MetOH, 6 d after stress imposition, vs drought-stressed plants, FIG. 9; for recovery capacity (phenotype): day 7 (6 d drought + 1 d rewatering), vs drought-stressed alone, FIG. 10; for phenotype after second wave of drought stress: day 13, another 6 days without watering, FIG. 11
Description: where cPTIO represents a NO inhibitor, while HXL is a H2S inhibitor. In addition to the previous setup of sampling control and drought-stressed samples, plants were re-watered at 6 d after drought stress imposition and additional sampling was carried out 1 d after rewatering to examine recovery of plants, while a second wave of drought stress was imposed to see if primed plants develop a longer-term, ‘memory’ effect. Plant Material and Stress Conditions
(§1) Mature (42 d) Medicago sativa plants were used for the purposes of this study. These were grown in soil medium under controlled, optimal growth conditions and were then subjected to drought stress. Drought was imposed by withholding watering until drought symptoms (loss of turgour, wilting, chlorosis) were observed (6 d after stress imposition). Samples were then re-watered to observe recovery potential after 1 day (7 d). Both NOSH and NOSH-aspirin were applied at 100 μM concentration by foliar spraying at the start of stress imposition. The hybrid donors were diluted in 30% (v/v) methanol. Physiological parameters (stomatal conductance and chlorophyll fluorescence) were measured with a DT-Porometer AP4 (Delta-TDevices, Cambridge, UK) and an OptiSci OS-30p chlorophyll fluorometer (Opti-Sciences, Hudson, N.H., USA) respectively (Filippou et al., 2013). Chlorophyll fluorescence (Fv/Fm) of leaves represents the maximum photochemical efficiency of photosystem II (PSII). Cellular damage was evaluated by lipid peroxidation levels (TBARS content), nitric oxide (NO) content (nitrosative stress) and hydrogen peroxide (H2O2) content (oxidative stress) as previously described (Filippou et al., 2011; Tanou et al., 2012), while osmoprotective capacity was evaluated by proline content (ninhydrin assay) as previously described (Antoniou et al., 2013). Antioxidant enzyme activities (SOD and CAT) were measured as previously described (Filippou et al., 2014). Real-time RT-PCR gene expression analysis was carried out using a Biorad IQ5 thermocycler as previously described (Filippou et al., 2013). Relative quantification of gene expression and statistical analysis of all qRT-PCR data (pairwise fixed reallocation randomization test) were performed using the REST software according to Pfaffl et al. (2002). The actin 11 gene was used as a housekeeping reference gene. All analyses were carried out using three independent biological pools of samples as replicates (with a minimum of fifteen independent plants per pooled sample). The experimental setup is shown schematically in FIG. 8.

Medicago sativa plants [2] = assay: Physiological measurements (stomatal conductance, chlorophyll fluorescence) in drought-stressed plants; conditions: 100 μM; vs drought-stressed samples; FIG. 12
Description: as §1

Medicago sativa plants [3] = assay: Lipid peroxidation (leaf MDA/TBARS content) in drought-stressed plants; conditions: FIG. 13
Description: as §1
An examination of cellular damage levels was performed by means of spectrophotometric determination of lipid peroxidation.

Medicago sativa plants [4] = assay: Antioxidant enzyme activities (SOD and CAT) in leaves of drought-stressed plants; conditions: 7 d, after rewatering, vs stressed-alone plants; for SOD enzymatic activity: FIG. 16A; for CAT enzymatic activity: FIG. 16B
Description: as §1
The enzymatic activity of two key antioxidants (SOD and CAT) were evaluated. SOD dismutates superoxide radicals to hydrogen peroxide, while CAT directly scavenges hydrogen peroxide. Both enzymes appear to be regulated in response to stress and priming agent pretreatment in a differential manner (FIG. 16). […] In any case, it should be noted that the cellular enzymatic antioxidant battery linked with ROS scavenging is very complex involving several other components (e.g. APX), isoforms in several compartments (e.g. peroxisomes, chloroplasts, mitochondria), as well as non-enzymatic antioxidants (e.g. ascorbic acid, tocopherols and glutathione).

Medicago sativa plants [5] = assay: Nitric oxide content in leaves of drought-stressed plants; conditions: 100 μM; vs drought-stressed samples; FIG. 14B
Description: as §1, with “Antioxidant enzyme activities (SOD and CAT) were measured as previously described (Filippou et al., 2014). Real-time RT-PCR gene expression analysis was carried out using a Biorad IQ5 thermocycler as previously described (Filippou et al., 2013). Relative quantification of gene expression and statistical analysis of all qRT-PCR data (pairwise fixed reallocation randomization test) were performed using the REST software according to Pfaffl et al. (2002). The actin 11 gene was used as a housekeeping reference gene. All analyses were carried out using three independent biological pools of samples as replicates (with a minimum of fifteen independent plants per pooled sample). The experimental setup is shown schematically in FIG. 8.” left out

[6] = test system: Arabidopsis thaliana Col-0 plants; assay: Growth promotion (leaf area, ImageJ leaf series) on MS agar plates; conditions: 23 DAS; for true leaf 4 and 5 area: vs control samples
Description: An in vitro experiment was carried out in order to evaluate the potential of NOSH and NOSH-A for growth promotion in terms of leaf area increase in Arabidopsis thaliana plants. Arabidopsis thaliana Col-0 plants were used for the purposes of this study. Seeds were placed on MS agar plates containing 10 μM or 100 μM NOSH or NOSH-A (diluted in 20% (v/v) acetone) which were then incubated in the dark at 4° C. for 4 days for stratification purposes. Appropriate control plates were also prepared. The plates were then placed in a growth chamber and leaves were sampled at 23 DAS (days after sowing). Complete leaf series were examined from seven individual plants per treatment (n=7). A complete leaf series consists of all leaves from each individual plant, starting from the cotyledons and including all true leaves, harvested and examined in order of presence on the plant (from older to younger true leaf). These leaves are excised and placed on agar plates where photographs are taken and leaf areas are calculated using ImageJ software (http://imagej.nih.gov/ij/).

[7] = 100 μM, 6 d drought, vs drought-stressed samples

| Structure (SMILES) | phenotype (vitality, turgor, greening) (Medicago sativa plants [1]) | recovery capacity (phenotype) (Medicago sativa plants [1]) | phenotype after second wave of drought stress (Medicago sativa plants [1]) | chlorophyll fluorescence (Fv/Fm) (Medicago sativa plants [2]) | stomatal conductance (Medicago sativa plants [2]) | MDA content (lipid peroxidation) (Medicago sativa plants [3]; [7]) | MDA content (lipid peroxidation) (Medicago sativa plants [3]; 7 d (after rewatering)) | SOD enzymatic activity (Medicago sativa plants [4]) | CAT enzymatic activity (Medicago sativa plants [4]) | nitric oxide (NO) content (Medicago sativa plants [5]) | growth induction (macroscopic analysis) ([6]; 10 μM in MS agar) | overall rosette area (total leaf area per plant), increase compared with control plants ([6]; 10 μM, n=7, FIG. 22) | true leaf 4 and 5 area ([6]; 10 μM, n=7, FIG. 22) | growth induction (macroscopic analysis) ([6]; 100 μM in MS agar) | greening of leaves ([6]; MS agar plates, FIGS. 18-21) |
| --- | --- | --- | --- | --- | --- | --- | --- | --- | --- | --- | --- | --- | --- | --- | --- |
| O=C(CCCO[N+](=O)[O-])Oc1ccc(-c2cc(=S)ss2)cc1 [NOSH] | significantly improved vitality, turgor and greening | notably improved recovery capacity | maintained growth and vitality | significantly higher | significantly higher | statistically significant protection | maintained low MDA content levels close to those of control, watered samples | significantly induced | increased CAT enzymatic activity; also recorded: significantly induced | significantly reversed | visible growth induction | 37% | significantly higher | contrarily | increased greening |
| O=C(CCCO[N+](=O)[O-])Oc1ccccc1C(=O)Oc1ccc(-c2cc(=S)ss2)cc1 [NOSH-A] | significantly improved vitality, turgor and greening | notably improved recovery capacity | maintained growth and vitality | significantly higher | significantly higher | statistically significant protection | maintained low MDA content levels close to those of control, watered samples | significantly induced | increased CAT enzymatic activity; also recorded: significantly induced | significantly reversed | visible growth induction |  | no significant increase | contrarily |  |
